{"source": "patent US6664271B1", "about": "“Immunopotentiator agents” (Eli Lilly and Company, priority 1999, dated 2003)", "key": {"mononuclear leukocytes": {"test_system": "mononuclear leukocytes", "test": "mammalian T-lymphocyte blastogenesis assay, canine (Example 75)", "type": "cell-based", "description": "The compound prepared in Example 30, namely (S)-ethyl 1-(2-thiopheneacetyl)-3-peridinecarboxylate, was further evaluated for in vitro T-lymphocyte blastogenic activity from mammalian species other than avian.\nThe mammalian blastogenesis assays were conducted with the same protocol as the vian assays with the following exceptions:\n1. Only mononuclear leukocytes are used for the mammalian assay. The cells are obtained from whole blood by differential centrifugation using Histopague 1.077 (Sigma Chemical Company, St. Louis, Mo).\n2. 0.5% Fetal Bovine Serum (FBS) [GIBCOBRL, Grand Island N.Y.] is added to RPMI 1640 medium. Exception: Non-human primate plasma is used instead of FBS at 5 ml/liter to RPMI 1640 medium.\n3. 5×10^5 cells/well were used with the mammalian assays."}, "[1]": {"test_system": "Actinobacillus pleuropneumoniae (App) 92C", "test": "Seeder Pig Infection Model (Example 76)", "type": "in vivo", "conditions": "contact pigs", "description": "The compound prepared in Example 30, namely (S)-ethyl 1-(2-thiopheneacetyl)-3-piperidinecarboxylate, was utilized in a test formulation to investigate its efficacy to prevent or control the horizontal transmission of Actinobacillus pleuropneumoniae (App) 92C in a Seeder Pig Infection Model. The seeder pig model was chosen for the efficacy evaluation of the immunopotentiator compounds and analogs to prevent or control disease caused by App in recently weaned pigs. This model mimics a field outbreak of pneumonia in nursery pigs.\nThe animals tested were purchased from a commercial herd source known to be free of obvious disease and not recently on medication. There were a total of seventy-two (72) pigs, recently weaned and weighing in the approximate range of 15-20 pounds (6.8-9.1 kg). The challenged pigs were infected with an intranasal inoculation of Actinobacillus pleuropneumoniae (App), lyophilized #92C, a serotype 1, Iowa strain. The challenge material was a saline suspension containing a 2.5 hour log-phase growth broth culture, centrifuged and reconstituted at a concentration that contains 3×10^7 App 92C colony forming units (CFU) per pig in a 4 ml dose. An approved Animal Use Protocol governed the conduct of this trial.\nUpon arrival, the pigs were double ear-tagged and divided into contact (48) and seeder (24) pig/groups. The seeder pigs were placed in two (2) groups of twelve (12) pigs per room (Groups 1). The contact pigs were placed in (8) groups of six (6) pigs per room (Groups 2-9). Lilly swine ration, AP11 SW and water were available ad libitum. All animals were observed daily and a room record was recorded.\nDay −5 Pigs arrive for the acclimation period of a minimum of 5 days.\nDay 0 Daily individual observations of clinical impression signs begin and continue throughout the experiment. These were scored on a 0 to 3 scale (0=normal: alert, responsive; 1=slight: dyspnea, rough coat, slow to react; 2=moderate: lethargic, rough coat, breathing difficulty; 3=severe: unresponsive, breathing distress (open mouth).\nDay 0 Individual animal weights of the contacts were taken.\nDay 0 2 hours prior to infection of the seeder pigs, the contact pigs were injected via the intraperitoneal route with the test formulations. Two (2) rooms of six (6) pigs were treated with each of the following dose levels: 0 μg/pig, 125 μg/pig, 250 μg/pig, and 500 μg/pig.\nDay 0 Twenty-four (24) seeder pigs were challenged with a dose containing […] CFU of Actinobacillus pleuropneumoniae (App) 92C inoculum. The infected seeder pigs were then placed, 3 pigs per room, with the 6 treated contact pigs. To maximize the horizontal transmission of App, the living space in the rooms was reduced from 120 sq. ft. to 60 sq. ft., by placing partitions in the rooms.\nDay +3 to +5 The seeder pigs were removed from all rooms. The pigs were euthanized, lung pathology was determined and lung cultures were taken. Moribund animals were euthanized. Any animals that succumbed to infection while on test were necropsied, lung lesions were scored and a sample was taken for bacterial isolation.\nDay +14 The experiment was terminated. The contact pigs (Groups 2-9) were weighed, euthanized, and necropsied, with lung lesion scoring and bacterial culture assessment.\nThe test formulations were in an Acetate Buffered Saline vehicle. Samples were analyzed for potency. Data obtained was analyzed for weight gain, mortality, clinical impression scores, lung lesions, and bacteriologic recovery. Statistics were performed as appropriate to detect differences between groups."}, "E. coli": {"test_system": "E. coli", "test": "colibacillosis infection model in broiler chickens, Trial B (Example 78)", "type": "in vivo, chicken"}}, "note": "Marks after values point to notes of the source that are not given here.", "data": [{"smiles": "CCOC(=O)[C@H]1CCCN(C(=O)Cc2cccs2)C1", "note": "[Example 30, (S)-Ethyl 1-(2-Thiopheneacetyl)-3-piperidinecarboxylate]", "values": [{"measurement": "MSC", "setting": "mononuclear leukocytes", "value": 1, "unit": "μg μg/ml"}, {"measurement": "MTC", "setting": "mononuclear leukocytes", "value": 100, "unit": "µg/mL"}, {"measurement": "% Lung Consolidation", "setting": "[1]; 125 μg/pig intraperitoneal", "value": 14.0, "unit": "%"}, {"measurement": "% Lung Lesions", "setting": "[1]; 125 μg/pig intraperitoneal", "value": 41.5, "unit": "%"}, {"measurement": "% Mortality", "setting": "[1]; 125 μg/pig intraperitoneal", "value": 16.6, "unit": "%"}, {"measurement": "App Reisolation", "setting": "[1]; 125 μg/pig intraperitoneal", "value": 41.5}, {"measurement": "% Lung Consolidation", "setting": "[1]; 250 μg/pig intraperitoneal", "value": 0.44, "unit": "%"}, {"measurement": "% Lung Lesions", "setting": "[1]; 250 μg/pig intraperitoneal", "value": "0* %"}, {"measurement": "% Mortality", "setting": "[1]; 250 μg/pig intraperitoneal", "value": 0, "unit": "%"}, {"measurement": "App Reisolation", "setting": "[1]; 250 μg/pig intraperitoneal", "value": "0*"}, {"measurement": "% Lung Consolidation", "setting": "[1]; 500 μg/pig intraperitoneal", "value": 4.0, "unit": "%"}, {"measurement": "% Lung Lesions", "setting": "[1]; 500 μg/pig intraperitoneal", "value": 42.0, "unit": "%"}, {"measurement": "% Mortality", "setting": "[1]; 500 μg/pig intraperitoneal", "value": 0, "unit": "%"}, {"measurement": "App Reisolation", "setting": "[1]; 500 μg/pig intraperitoneal", "value": 42}, {"measurement": "% Colibacillosis-associated Mortality", "setting": "E. coli; 2 μg/chick subcutaneous", "value": 5, "unit": "%"}, {"measurement": "Average Weight Gain/Bird (lbs)", "setting": "E. coli; 2 μg/chick subcutaneous", "value": "2.53 lb (1.15 kg)"}, {"measurement": "Feed/Gain", "setting": "E. coli; 2 μg/chick subcutaneous", "value": 1.56}, {"measurement": "% Colibacillosis-associated Mortality", "setting": "E. coli; 12.5 μg/chick subcutaneous", "value": "2.8* %"}, {"measurement": "% Total Mortality", "setting": "E. coli; 12.5 μg/chick subcutaneous", "value": "10* %"}, {"measurement": "Average Weight Gain/Bird (lbs)", "setting": "E. coli; 12.5 μg/chick subcutaneous", "value": "2.44 lb (1.11 kg)"}, {"measurement": "Feed/Gain", "setting": "E. coli; 12.5 μg/chick subcutaneous", "value": 1.59}, {"measurement": "% Colibacillosis-associated Mortality", "setting": "E. coli; 25 μg/chick subcutaneous", "value": 6.8, "unit": "%"}, {"measurement": "% Total Mortality", "setting": "E. coli; 25 μg/chick subcutaneous", "value": 14.3, "unit": "%"}, {"measurement": "Average Weight Gain/Bird (lbs)", "setting": "E. coli; 25 μg/chick subcutaneous", "value": "2.49 lb (1.13 kg)"}, {"measurement": "Feed/Gain", "setting": "E. coli; 25 μg/chick subcutaneous", "value": 1.57}]}]}
